Legend:
Format in all cases: in vivo
CHEAL = experiment: Post-emergence biological efficacy; settings: Chenopodium album, 312 h, evaluated after 13 days, read-out: damage to plant (100=total damage to plant; 0=no damage to plant)
Procedure, shortened: (§1)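 Plants grown 14 days in glasshouse, then sprayed post-emergence with compound formulated in IF50 and diluted in 0.2% Genapol XO80 to the desired dose. Damage scored after 13 days on a 0–100 scale (100 = total damage).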

IPOHE [1] = experiment: Post-emergence biological efficacy; settings: Ipomoea hederacea, 312 h, evaluated after 13 days, read-out: damage to plant (100=total damage to plant; 0=no damage to plant)
Procedure, shortened: as §1

EPHHL [2] = experiment: Post-emergence biological efficacy; settings: Euphorbia heterophylla, 312 h, evaluated after 13 days, read-out: damage to plant (100=total damage to plant; 0=no damage to plant)
Procedure, shortened: as §1

AMAPA [3] = experiment: Post-emergence biological efficacy; settings: Amaranthus palmeri, 312 h, evaluated after 13 days, read-out: damage to plant (100=total damage to plant; 0=no damage to plant)
Procedure, shortened: as §1

ELEIN = experiment: Post-emergence biological efficacy; settings: 312 h, evaluated after 13 days, read-out: damage to plant (100=total damage to plant; 0=no damage to plant)
Procedure, shortened: as §1

LOLPE [4] = experiment: Post-emergence biological efficacy; settings: Lolium perenne, 312 h, evaluated after 13 days, read-out: damage to plant (100=total damage to plant; 0=no damage to plant)
Procedure, shortened: as §1

SETFA [5] = experiment: Post-emergence biological efficacy; settings: Setaria faberi, 312 h, evaluated after 13 days, read-out: damage to plant (100=total damage to plant; 0=no damage to plant)
Procedure, shortened: as §1

DIGSA = experiment: Post-emergence biological efficacy; settings: Digitaria sanguinalis, 312 h, evaluated after 13 days, read-out: damage to plant (100=total damage to plant; 0=no damage to plant)
Procedure, shortened: as §1

ECHCG [6] = experiment: Post-emergence biological efficacy; settings: Echinochloa crus-galli, 312 h, evaluated after 13 days, read-out: damage to plant (100=total damage to plant; 0=no damage to plant)
Procedure, shortened: as §1

IPOHE [7] = experiment: Pre-emergence biological efficacy; settings: Ipomoea hederacea, 312 h, evaluated after 13 days, read-out: damage to plant (100=total damage to plant; 0=no damage to plant)
Procedure, shortened: (§2)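 Scoring: visual plant damage at 13 days after spraying, 100 = total damage, 0 = none. Pots were sprayed 1 day post-sowing with an aqueous dilution (0.2% Genapol XO80) of an IF50/acetone formulation; glasshouse 24/18 °C, 15 h light, 50% humidity, watered twice daily.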

EPHHL [8] = experiment: Pre-emergence biological efficacy; settings: Euphorbia heterophylla, 312 h, evaluated after 13 days, read-out: damage to plant (100=total damage to plant; 0=no damage to plant)
Procedure, shortened: as §2

AMAPA [9] = experiment: Pre-emergence biological efficacy; settings: Amaranthus palmeri, 312 h, evaluated after 13 days, read-out: damage to plant (100=total damage to plant; 0=no damage to plant)
Procedure, shortened: as §2

LOLPE [10] = experiment: Pre-emergence biological efficacy; settings: Lolium perenne, 312 h, evaluated after 13 days, read-out: damage to plant (100=total damage to plant; 0=no damage to plant)
Procedure, shortened: as §2

SETFA [11] = experiment: Pre-emergence biological efficacy; settings: Setaria faberi, 312 h, evaluated after 13 days, read-out: damage to plant (100=total damage to plant; 0=no damage to plant)
Procedure, shortened: as §2

ECHCG [12] = experiment: Pre-emergence biological efficacy; settings: Echinochloa crus-galli, 312 h, evaluated after 13 days, read-out: damage to plant (100=total damage to plant; 0=no damage to plant)
Procedure, shortened: as §2

Row | Compound | pest or weed control at 250 g/ha (CHEAL) | pest or weed control at 250 g/ha (IPOHE [1]) | pest or weed control at 250 g/ha (EPHHL [2]) | pest or weed control at 250 g/ha (AMAPA [3]) | pest or weed control at 250 g/ha (ELEIN) | pest or weed control at 250 g/ha (LOLPE [4]) | pest or weed control at 250 g/ha (SETFA [5]) | pest or weed control at 250 g/ha (DIGSA) | pest or weed control at 250 g/ha (ECHCG [6]) | pest or weed control at 250 g/ha (IPOHE [7]) | pest or weed control at 250 g/ha (EPHHL [8]) | pest or weed control at 250 g/ha (AMAPA [9]) | pest or weed control at 250 g/ha (LOLPE [10]) | pest or weed control at 250 g/ha (SETFA [11]) | pest or weed control at 250 g/ha (ECHCG [12])
1 | CCOC(=O)C1(C)CC(c2cc(-c3ccc(C(F)(F)F)cn3)c(F)cc2Cl)=NO1 (stereo not drawn) [Compound 1-79, Ethyl 3-[2-chloro-4-fluoro-5-[5-(trifluoromethyl)-2-pyridyl]phenyl]-5-methyl-4H-isoxazole-5-carboxylate] | 100% | 100% | 100% | 100% | 90% | 100% | 100% | 100% | 100% | 100% | 60% | 50% | 40% | 60% | 80%
2 | CCOC(=O)C1(C)CC(c2cc(-c3ncc(C(F)(F)F)cc3Cl)c(F)cc2Cl)=NO1 (stereo not drawn) [Compound 1-103, Ethyl 3-[2-chloro-5-(3-chloro-5-trifluoromethyl-2-pyridyl)-4-fluoro-phenyl]-5-methyl-4H-isoxazole-5-carboxylate] | 100% | 100% | 100% | 100% | 100% | 100% | 100% | 100% | 100% | 100% | 100% | 100% | 80% | 80% | 90%
3 | CCOC(=O)C1(C)CC(c2cc(-c3ccc(C)cc3Cl)c(F)cc2Cl)=NO1 (stereo not drawn) [Compound 1-31, Ethyl 3-[2-chloro-5-(2-chloro-4-methyl-phenyl)-4-fluoro-phenyl]-5-methyl-4H-isoxazole-5-carboxylate] | 100% | 90% | 80% | 100% | 70% | 20% | 50% | 30% | 30% | 0% | 10% | 30% | 0% | 0% | 0%
4 | CCOC(=O)C1(C)CC(c2cc(-c3ncc(Br)cc3Cl)c(F)cc2Cl)=NO1 (stereo not drawn) [Compound 1-559, Ethyl 3-[5-(5-bromo-3-chloro-2-pyridyl)-2-chloro-4-fluoro-phenyl]-5-methyl-4H-isoxazole-5-carboxylate] | 100% | 100% | 100% | 100% | 90% | 90% | 100% | 80% | 100% | 10% | 50% | 100% | 50% | 80% | 90%
5 | CCOC(=O)C1(C)CC(c2cc(-c3ncc(C(F)F)cc3Cl)c(F)cc2Cl)=NO1 (stereo not drawn) [Compound 1-583, Ethyl 3-[2-chloro-5-[3-chloro-5-(difluoromethyl)-2-pyridyl]-4-fluoro-phenyl]-5-methyl-4H-isoxazole-5-carboxylate] | 100% | 100% | 100% | 100% | 90% | 100% | 100% | 90% | 100% | 60% | 100% | 100% | 60% | 90% | 90%
6 | CCOC(=O)C1(C)CC(c2cc(-c3ccc(C(F)(F)F)cc3Cl)c(F)cc2Cl)=NO1 (stereo not drawn) [Compound 1-7, Ethyl 3-[2-chloro-5-[2-chloro-4-(trifluoromethyl)phenyl]-4-fluoro-phenyl]-5-methyl-4H-isoxazole-5-carboxylate] | 100% | 90% | 90% | 90% | 70% | 10% | 60% | 40% | 30% | 0% | 0% | 30% | 0% | 0% | 0%
7 | CCOC(=O)C1(C)CC(c2cc(-c3ncc(Cl)cc3C(F)(F)F)c(F)cc2Cl)=NO1 (stereo not drawn) [Compound 1-343, Ethyl 3-[2-chloro-5-[5-chloro-3-(trifluoromethyl)-2-pyridyl]-4-fluoro-phenyl]-5-methyl-4H-isoxazole-5-carboxylate] | 100% | 100% | 100% | 100% | 100% | 60% | 100% | 100% | 80% | 60% | 50% | 70% | 20% | 50% | 30%
8 | CCOC(=O)C1(C)CC(c2cc(-c3cc(F)cnc3Cl)c(F)cc2Cl)=NO1 (stereo not drawn) [Compound 1-475, Ethyl 3-[2-chloro-5-(2-chloro-5-fluoro-3-pyridyl)-4-fluoro-phenyl]-5-methyl-4H-isoxazole-5-carboxylate] | 100% | 100% | 70% | 100% | 30% | 10% | 80% | 50% | 80% | 20% | 40% | 0% | 0% | 0% | 0%
9 | CC1(C(=O)O)CC(c2cc(-c3ncc(C(F)(F)F)cc3Cl)c(F)cc2Cl)=NO1 (stereo not drawn) [Compound 1-101, 3-[2-chloro-5-(3-chloro-5-trifluoromethyl-2-pyridyl)-4-fluoro-phenyl]-5-methyl-4H-isoxazole-5-carboxylic acid] | 100% | 100% | 100% | 100% | 100% | 100% | 100% | 100% | 100% | 100% | 100% | 100% | 80% | 100% | 100%

Reference: patent US20240124432A1, “HERBICIDAL COMPOUNDS” (SYNGENTA CROP PROTECTION AG, priority 2020, published 2024)
